Article PMC8343220, “The selectivity of α‐adrenoceptor agonists for the human α1A, α1B, and α1D‐adrenoceptors” (Pharmacology Research & Perspectives, 2021)

Assays:
human α1A‐adrenoceptor [1] = molecular target: T1, human α1A‐adrenoceptor (Homo sapiens, UniProt P35348); test: ^3H‐prazosin whole‐cell radioligand binding, CHO‐α1A cells; settings: for Kd: CHO‐α1A cells, given as log KD (negative), mean ± SEM; for Affinity selectivity ratio α1A vs α1B: higher affinity for α1A than α1B
T1 construct: expressed in transfected cells; host or cells: CHO-K1
T1 sequence (P35348 1-466): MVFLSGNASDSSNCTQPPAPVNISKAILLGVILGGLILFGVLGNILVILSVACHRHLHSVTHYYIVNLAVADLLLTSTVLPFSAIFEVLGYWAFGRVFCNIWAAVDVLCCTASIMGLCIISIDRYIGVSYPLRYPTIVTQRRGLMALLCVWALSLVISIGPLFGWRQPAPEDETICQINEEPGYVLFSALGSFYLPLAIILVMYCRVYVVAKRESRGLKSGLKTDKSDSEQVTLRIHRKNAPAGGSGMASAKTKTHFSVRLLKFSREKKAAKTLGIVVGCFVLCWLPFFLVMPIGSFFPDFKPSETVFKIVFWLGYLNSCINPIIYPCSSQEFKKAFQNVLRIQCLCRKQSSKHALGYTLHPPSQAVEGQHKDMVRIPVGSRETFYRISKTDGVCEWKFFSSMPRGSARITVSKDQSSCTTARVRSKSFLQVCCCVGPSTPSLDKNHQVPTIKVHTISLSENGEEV

[2] = molecular target: T2, human α1D‐adrenoceptor (full length) (Homo sapiens, UniProt P25100); test: ^3H‐prazosin whole‐cell radioligand binding, CHO‐α1D cells; settings: for Kd: CHO‐α1D cells; for Affinity selectivity ratio α1A vs α1D: higher affinity for α1D than α1A; for Affinity selectivity ratio α1B vs α1D: higher affinity for α1D than α1B
T2 construct: human α1D‐adrenoceptor (full length) were used; expressed in transfected cells; host or cells: CHO-K1
T2 sequence (P25100 1-572): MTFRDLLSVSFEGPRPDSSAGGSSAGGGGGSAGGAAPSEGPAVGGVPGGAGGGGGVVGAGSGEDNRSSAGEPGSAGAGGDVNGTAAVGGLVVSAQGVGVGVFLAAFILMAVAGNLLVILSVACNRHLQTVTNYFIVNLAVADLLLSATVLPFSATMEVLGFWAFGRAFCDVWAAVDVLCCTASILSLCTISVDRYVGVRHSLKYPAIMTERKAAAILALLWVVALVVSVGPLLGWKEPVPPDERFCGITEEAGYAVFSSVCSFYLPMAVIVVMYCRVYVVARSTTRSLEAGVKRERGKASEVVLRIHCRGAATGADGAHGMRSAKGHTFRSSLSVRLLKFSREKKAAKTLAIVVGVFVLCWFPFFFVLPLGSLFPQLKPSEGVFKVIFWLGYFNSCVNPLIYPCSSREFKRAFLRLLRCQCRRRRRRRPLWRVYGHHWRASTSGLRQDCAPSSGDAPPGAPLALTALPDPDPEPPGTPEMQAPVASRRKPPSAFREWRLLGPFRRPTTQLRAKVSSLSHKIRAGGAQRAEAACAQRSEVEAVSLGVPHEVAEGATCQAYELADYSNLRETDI

human α1A‐adrenoceptor [3] = molecular target: T1, human α1A‐adrenoceptor; test: Intracellular free calcium mobilization, CHO‐α1A cells; format: cell-based; settings: CHO‐α1A cells; for Log efficacy ratio KD /EC50: binding KD and calcium EC50; for EC50: given as log EC50 (negative), read-out: Intracellular calcium release Log EC50 (converted); for Intracellular calcium release % ionomycin: maximal response as % of 10 µM ionomycin
human α1B‐adrenoceptor [4] = molecular target: T3, human α1B‐adrenoceptor (Homo sapiens, UniProt P35368); test: Intracellular free calcium mobilization, CHO‐α1B cells; format: cell-based; settings: CHO‐α1B cells; for EC50: given as log EC50 (negative numbers), read-out: Intracellular calcium release Log EC50 (converted); for Log efficacy ratio KD /EC50: intrinsic efficacy ratio, KD from binding / EC50 calcium; for Intracellular calcium release % ionomycin: maximal response as % of 10 µM ionomycin response
T3 construct: expressed in transfected cells; host or cells: CHO-K1
T3 sequence (P35368 1-520): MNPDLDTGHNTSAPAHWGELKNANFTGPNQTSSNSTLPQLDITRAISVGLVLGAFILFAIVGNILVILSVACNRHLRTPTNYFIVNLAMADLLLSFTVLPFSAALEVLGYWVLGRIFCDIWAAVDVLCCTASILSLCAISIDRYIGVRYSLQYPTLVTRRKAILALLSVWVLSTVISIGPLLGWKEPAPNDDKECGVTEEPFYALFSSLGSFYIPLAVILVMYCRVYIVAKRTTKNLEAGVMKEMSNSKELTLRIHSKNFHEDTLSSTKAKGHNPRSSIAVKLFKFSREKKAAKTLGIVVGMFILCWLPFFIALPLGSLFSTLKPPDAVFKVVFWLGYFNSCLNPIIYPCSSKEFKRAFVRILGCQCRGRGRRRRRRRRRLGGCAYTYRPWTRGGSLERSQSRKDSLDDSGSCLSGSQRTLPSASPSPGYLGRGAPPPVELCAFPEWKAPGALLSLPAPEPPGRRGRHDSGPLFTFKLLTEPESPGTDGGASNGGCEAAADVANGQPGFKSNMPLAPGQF

[5] = molecular target: T2, human α1D‐adrenoceptor (full length); test: Intracellular free calcium mobilization, CHO‐α1D cells; format: cell-based; settings: CHO‐α1D cells; for Log efficacy ratio KD /EC50: intrinsic efficacy ratio, binding KD / calcium EC50; for EC50: log values given negative, read-out: Intracellular calcium release Log EC50 (converted); for Intracellular calcium release % ionomycin: maximal response as % of 10 µM ionomycin
human α1B‐adrenoceptor [6] = molecular target: T3, human α1B‐adrenoceptor; test: ERK1/2‐phosphorylation (Surefire Alphascreen), CHO‐α1B cells; format: cell-based; settings: CHO‐α1B cells, for bi‐phasic responses the initial stimulatory part; for EC50: read-out: ERK1/2‐phosphorylation Log EC50 (converted); for ERK1/2‐phosphorylation % PDBu: maximal response as % PDBu response
[7] = tested on: parental CHO cell line without any transfected receptors; test: ERK1/2‐phosphorylation, parent CHO cells without transfected receptors; format: cell-based, Chinese hamster; settings: for ERK1/2-phosphorylation % PDBu / ERK1/2-phosphorylation Log EC50: CHO cells without transfected receptors, mean ± s.e.m.; for ERK1/2-phosphorylation % PDBu: maximal response as % of PDBu (10μM) response
human α1B‐adrenoceptor [8] = molecular target: T3, human α1B‐adrenoceptor; test: ^3H‐cAMP accumulation, CHO‐α1B cells; format: cell-based; settings: CHO‐α1B cells; for cAMP accumulation % forskolin at 100 µM: response at 100 µM ligand (no EC50 given)
[9] = molecular target: T2, human α1D‐adrenoceptor (full length); test: ^3H‐cAMP accumulation, CHO‐α1D cells; format: cell-based; settings: cAMP accumulation without forskolin
human α1A‐adrenoceptor [10] = molecular target: T1, human α1A‐adrenoceptor; test: ^3H‐cAMP accumulation in the presence of 10 μM forskolin, CHO‐α1A cells; format: cell-based; settings: CHO‐α1A cells; for EC50: 10 μM forskolin, read-out: cAMP accumulation (in presence of forskolin) Log EC50 (converted); for cAMP accumulation (in presence of forskolin) Fold increase: fold increase of the forskolin response
human α1B‐adrenoceptor [11] = molecular target: T3, human α1B‐adrenoceptor; test: ^3H‐cAMP accumulation in the presence of 10 μM forskolin, CHO‐α1B cells; format: cell-based; settings: CHO‐α1B cells; for cAMP accumulation (in presence of forskolin) Fold increase: fold increase of the forskolin response; for EC50: in presence of forskolin, read-out: cAMP accumulation (in presence of forskolin) Log EC50 (converted)
[12] = molecular target: T2, human α1D‐adrenoceptor (full length); test: ^3H‐cAMP accumulation in the presence of 10 μM forskolin, CHO‐α1D cells; format: cell-based; settings: CHO‐α1D cells; for cAMP (in presence of forskolin) Fold increase: fold increase of the forskolin response; for EC50: in presence of forskolin, log values given negative
[13] = tested on: parental CHO cell line without any transfected receptors; test: Forskolin‐stimulated cAMP accumulation, parent CHO cells without transfected receptors; format: cell-based, Chinese hamster; settings: CHO cells without transfected receptors; in presence of forskolin
[14] = 3H‐prazosin binding Log KD, whole‐cell binding (from Table 1), log values given negative
[15] = given as log KD (negative), mean ± SEM, 'early plateau' = specific binding not fully inhibited

Row | Compound | Affinity selectivity ratio α1A vs α1B (human α1A‐adrenoceptor [1]) | Affinity selectivity ratio α1B vs α1D [2] | Log efficacy ratio KD /EC50 (human α1A‐adrenoceptor [3]) | EC50 (human α1A‐adrenoceptor [3]) | Intracellular calcium release % ionomycin (human α1A‐adrenoceptor [3]) | EC50 (human α1B‐adrenoceptor [4]) | Log efficacy ratio KD /EC50 (human α1B‐adrenoceptor [4]) | Intracellular calcium release % ionomycin (human α1B‐adrenoceptor [4]) | Log efficacy ratio KD /EC50 [5] | EC50 [5] | Intracellular calcium release % ionomycin [5] | EC50 (human α1B‐adrenoceptor [6]) | ERK1/2‐phosphorylation % PDBu (human α1B‐adrenoceptor [6]) | cAMP Log EC50 [9] | EC50 (human α1A‐adrenoceptor [10]) | cAMP accumulation (in presence of forskolin) Fold increase (human α1A‐adrenoceptor [10]) | cAMP accumulation (in presence of forskolin) Fold increase (human α1B‐adrenoceptor [11]) | EC50 (human α1B‐adrenoceptor [11]) | cAMP (in presence of forskolin) Fold increase [12] | EC50 [12] | further results
1 | CCNCC(O)c1cccc(O)c1 (centres unmarked) [Etilefrine] | >9.8 fold | >28.1 fold | 3.12 | 77.6 nM | 58.1 ± 2.1% | 13.8 nM | >4.86 | 61.1 ± 2.1% | 1.42 | 1350 nM | 13.7 ± 1.8% | 302 nM | 78.8 ± 6.1% | No response | 1290 nM | 2.17 ± 0.08 fold | 2.47 ± 0.09 fold | 661 nM | 1.18 ± 0.04 | 759 nM | Kd (human α1A‐adrenoceptor [1]; Log KD α1A, ^3H‐prazosin whole cell binding): 102000 nM; Kd [2, 14]: 35500 nM; Kd ([2]; Log KD α1D, ^3H‐prazosin whole cell binding, given as log KD (negative), mean ± SEM, 'early plateau' = specific binding not fully inhibited): 35500 nM; Affinity selectivity ratio α1A vs α1D [2]: 2.9 fold; ERK1/2-phosphorylation % PDBu [7]: No response; ERK1/2-phosphorylation Log EC50 [7]: No response; cAMP accumulation % forskolin at 100 µM (human α1B‐adrenoceptor [8]): 73.4 ± 7.1%; cAMP accumulation (in presence of forskolin) Log EC50 [13]: No response
2 | N=C(N)NC(=O)Cc1c(Cl)cccc1Cl [Guanfacine] | 28.8 fold | 11.5 fold | 1.95 | 52.5 nM | 56.8 ± 2.2% | 26.9 nM | 3.70 | 59.0 ± 2.4% | 0.53 | 3470 nM | 28.6 ± 2.0% | 195 nM | 97.4 ± 2.7% | No response | 155 nM | 2.22 ± 0.05 fold | 2.67 ± 0.18 fold | 324 nM | 1.20 ± 0.7 | 229 nM | Kd (human α1A‐adrenoceptor [1]): 4680 nM; Affinity selectivity ratio α1A vs α1D (human α1A‐adrenoceptor [1]; higher affinity for α1A than α1D): 2.5 fold; Kd [2, 15]: 11700 nM; Emax at 100 µM ([7]; Cricetulus griseus, CHO, read-out: ERK1/2-phosphorylation % PDBu at 100μM): 2.5 ± 1.7%; cAMP accumulation % forskolin (human α1B‐adrenoceptor [8]; % forskolin maximum response): 39.0 ± 5.8%; EC50 (human α1B‐adrenoceptor [8]; read-out: cAMP accumulation Log EC50 (converted)): 1620 nM; cAMP accumulation (in presence of forskolin) Log EC50 [13]: No response
3 | C[C@H](N)[C@H](O)c1cccc(O)c1 [Metaraminol] | >11.7 fold | >17.8 fold | 3.14 | 61.7 nM | 66.9 ± 3.2% | 112 nM | >3.95 | 60.1 ± 3.1% | 1.87 | 759 nM | 23.1 ± 3.8% | 1450 nM | 92.2 ± 3.9% | No response | 813 nM | 2.54 ± 0.11 fold | 2.58 ± 0.07 fold | 1480 nM | 1.19 ± 0.04 | 324 nM | Kd (human α1A‐adrenoceptor [1]): 85100 nM; Kd [2, 14]: 56200 nM; Kd [2, 15]: 56200 nM; Affinity selectivity ratio α1A vs α1D [2]: 1.5 fold; ERK1/2-phosphorylation % PDBu [7]: No response; ERK1/2-phosphorylation Log EC50 [7]: No response; cAMP accumulation % forskolin at 100 µM (human α1B‐adrenoceptor [8]): 42.0 ± 5.1%; cAMP accumulation (in presence of forskolin) Log EC50 [13]: No response
